Assay results published in ChEMBL document CHEMBL5512665, “A CARM1 Inhibitor Potently Suppresses Breast Cancer Both In Vitro and In Vivo” (J Med Chem, 2024).
Active and inactive are the calls of the source.

Tests used:
[1] = Toxicity in BALB/C mouse xenografted with human MDA-MB-231 cells assessed as change in kidney morphology at 50 mg/kg,ip administrated daily for 11 days; format: organism-based; settings: in vivo, 264 h, time 11 day
4T1 [2] = test: Potentiation of etoposide induced antiproliferative activity against mouse 4T1 cells assessed as upregulation of DDX58 gene expression at 2.5 uM in presence of etoposide by RT-qPCR analysis; format: functional, cell-based
4T1 [3] = test: Antitumor activity against mouse 4T1 cells implanted in BALB/C mouse assessed as downregulation of TFF1 gene expression at 25 mg/kg,ip administrated daily for 14 days by RT-qPCR analysis; format: functional, organism-based; settings: time 14.0 day
MCF7 [4] = test: Antitumor activity against human MCF7 cells xenografted in BALB/C mouse assessed as downregulation of N-Myc gene expression at 25 mg/kg,ip administrated every other day for 29 days by RT-qPCR analysis; format: functional, organism-based; settings: time 29.0 day
MCF7 [5] = test: Antitumor activity against human MCF7 cells xenografted in BALB/C mouse assessed as inhibition of tumor growth at 50 mg/kg,ip administrated every other day for 29 days; format: functional, organism-based; settings: time 29.0 day
MCF7 [6] = test: Synergistic antiproliferative activity against human MCF7 cells assessed as downregulation of GREB1 gene expression at 2.5 uM incubated for 6 hrs in presence of fulvestrant by RT-qPCR analysis; format: functional, cell-based
[7] = Toxicity in BALB/C mouse implanted with mouse 4T1 cells assessed as change in liver morphology at 50 mg/kg,ip administrated daily for 14 days; format: organism-based; settings: in vivo, 336 h, time 14 day
MCF7 [8] = test: Synergistic antitumor activity against human MCF7 cells xenografted in BALB/C mouse assessed as downregulation of CCND1 gene expression at 25 mg/kg,ip administrated every other day for 15 days in presence of 5 mg/kg tamoxifen oral administration by RT-qPCR analysis; format: functional, organism-based; settings: time 15.0 day
[9] = Toxicity in BALB/C mouse xenografted with human MDA-MB-231 cells assessed as change in liver morphology at 50 mg/kg,ip administrated daily for 11 days; format: organism-based; settings: in vivo, 264 h, time 11 day
[10] = Toxicity in BALB/C mouse implanted with mouse 4T1 cells assessed as change in body weight at 25 mg/kg,ip administrated daily for 12 days in presence of 8 mg/kg etoposide administration; format: organism-based; settings: in vivo, 288 h, time 12 day
4T1 [11] = test: Antitumor activity against mouse 4T1 cells implanted in BALB/C mouse assessed as upregulation of DDX58 gene expression at 25 mg/kg,ip administrated daily for 14 days by RT-qPCR analysis; format: functional, organism-based; settings: time 14.0 day
MCF7 [12] = test: Potentiation of etoposide induced antiproliferative activity against human MCF7 cells assessed as upregulation of ISG15 gene expression at 2.5 uM in presence of etoposide by RT-qPCR analysis; format: functional, cell-based
[13] = Toxicity in BALB/C mouse xenografted with human MCF7 cells assessed as change in liver morphology at 25 mg/kg,ip administrated every other day for 29 days; format: organism-based; settings: in vivo, 696 h, time 29 day
T47D = test: Antiproliferative activity against human T47D cells assessed as reduction in cell growth incubated for 7 days by celltiter 96 aqueous one solution cell proliferation assay; settings: 168 h
[14] = Toxicity in BALB/C mouse xenografted with human MDA-MB-231 cells assessed as change in heart morphology at 25 mg/kg,ip administrated daily for 11 days; format: organism-based; settings: in vivo, 264 h, time 11 day
MCF7 [15] = test: Antitumor activity against human MCF7 cells xenografted in BALB/C mouse assessed as downregulation of N-Myc gene expression at 50 mg/kg,ip administrated every other day for 29 days by RT-qPCR analysis; format: functional, organism-based; settings: time 29.0 day
[16] = Toxicity in BALB/C mouse xenografted with human MDA-MB-231 cells assessed as change in heart morphology at 50 mg/kg,ip administrated daily for 11 days; format: organism-based; settings: in vivo, 264 h, time 11 day
[17] = Toxicity in BALB/C mouse xenografted with human MCF7 cells assessed as change in liver morphology at 50 mg/kg,ip administrated every other day for 29 days; format: organism-based; settings: in vivo, 696 h, time 29 day
MCF7 [18] = test: Synergistic antiproliferative activity against human MCF7 cells assessed as inhibition of cell growth at 2.5 uM incubated for 7 days in presence of tamoxifen by celltiter 96 aqueous one solution cell proliferation assay; format: functional, cell-based; settings: time 7.0 day
[19] = Toxicity in BALB/C mouse xenografted with human MCF7 cells assessed as change in lung morphology at 25 mg/kg,ip administrated every other day for 29 days; format: organism-based; settings: in vivo, 696 h, time 29 day
MDA-MB-231 [20] = test: Antitumor activity against human MDA-MB-231 cells xenografted in BALB/C mouse assessed as inhibition of tumor growth at 50 mg/kg,ip administrated daily for 11 days; format: functional, organism-based; settings: time 11.0 day
MCF7 [21] = test: Synergistic antitumor activity against human MCF7 cells xenografted in BALB/C mouse assessed as downregulation of GREB1 gene expression at 25 mg/kg,ip administrated every other day for 15 days in presence of 5 mg/kg tamoxifen oral administration by RT-qPCR analysis; format: functional, organism-based; settings: time 15.0 day
4T1 [22] = test: Potentiation of etoposide induced antitumor activity against mouse 4T1 cells implanted in BALB/C mouse assessed as increase in infiltration of CD8 positive T cells at 25 mg/kg,ip administrated daily for 12 days in presence of 8 mg/kg etoposide administration by immunohistochemical staining based analysis; format: functional, organism-based; settings: time 12.0 day
MCF7 [23] = test: Synergistic antitumor activity against human MCF7 cells xenografted in BALB/C mouse assessed as reduction in tumor size at 25 mg/kg,ip administrated every other day for 15 days in presence of 5 mg/kg tamoxifen oral administration; format: functional, organism-based; settings: time 15.0 day
4T1 [24] = test: Antitumor activity against mouse 4T1 cells implanted in BALB/C mouse assessed as downregulation of FOXC1 gene expression at 50 mg/kg,ip administrated daily for 14 days by RT-qPCR analysis; format: functional, organism-based; settings: time 14.0 day
MCF7 [25] = test: Antitumor activity against human MCF7 cells xenografted in BALB/C mouse assessed as upregulation of DDX58 gene expression at 25 mg/kg,ip administrated every other day for 29 days by RT-qPCR analysis; format: functional, organism-based; settings: time 29.0 day
MDA-MB-231 [26] = test: Antitumor activity against human MDA-MB-231 cells xenografted in BALB/C mouse assessed as reduction of tumor size at 50 mg/kg,ip administrated daily for 11 days; format: functional, organism-based; settings: time 11.0 day
MCF7 [27] = test: Synergistic antiproliferative activity against human MCF7 cells assessed as downregulation of FOXC1 gene expression at 2.5 uM incubated for 6 hrs in presence of tamoxifen by RT-qPCR analysis; format: functional, cell-based
MCF7 [28] = test: Synergistic antiproliferative activity against human MCF7 cells assessed as downregulation of CCND1 gene expression at 2.5 uM incubated for 6 hrs in presence of tamoxifen by RT-qPCR analysis; format: functional, cell-based
4T1 [29] = test: Antitumor activity against mouse 4T1 cells implanted in BALB/C mouse assessed as increase in infiltration of CD8 positive T cells at 50 mg/kg,ip administrated daily for 14 days by immunohistochemical staining based analysis; format: functional, organism-based; settings: time 14.0 day
[30] = Toxicity in BALB/C mouse xenografted with human MDA-MB-231 cells assessed as change in body weight at 25 mg/kg,ip administrated daily for 11 days; format: organism-based; settings: in vivo, 264 h, time 11 day
4T1 [31] = test: Antitumor activity against mouse 4T1 cells implanted in BALB/C mouse assessed as inhibition of tumor weight at 25 mg/kg,ip administrated daily for 14 days; format: functional, organism-based; settings: time 14.0 day

Cc1ccc(-c2nc(N3CCN(CCN(C)C)CC3)ncc2-c2ccoc2)cc1.Cl.Cl
Non-Toxic: Activity [1] | Activity [7] | Activity [9] | Activity [10] | Activity [13] | Activity [14] | Activity [16] | Activity [17] | Activity [19] | Activity [30]
active: Activity (4T1 [2]) | Activity (4T1 [3]) | Activity (MCF7 [4]) | Activity (MCF7 [5]) | Activity (MCF7 [6]) | Activity (MCF7 [8]) | Activity (4T1 [11]) | Activity (MCF7 [12]) | Activity (MCF7 [15]) | Activity (MCF7 [18]) | Activity (MDA-MB-231 [20]) | Activity (MCF7 [21]) | Activity (4T1 [22]) | Activity (MCF7 [23]) | Activity (4T1 [24]) | Activity (MCF7 [25]) | Activity (MDA-MB-231 [26]) | Activity (MCF7 [27]) | Activity (MCF7 [28]) | Activity (4T1 [29]) | Activity (4T1 [31])
4.74 µM: EC50 (T47D)
